From patent US8889723B2, “Aminoalkyloxazole and aminoalkylthiazolecarboxylic acid amides as regeneration-promoting substances for sensory organs and post-mitotic tissues” (EMC microcollections GmbH, priority 2010, dated 2014)
“Also recorded” adds a separate entry of the source.

Columns and labels:
[1] = system: supportive cells of the organ of Corti; assay: In vitro organ culture model: BrdU incorporation after neomycin damage; format: cell-based, mouse; settings: 5 μM, 4 days, after neomycin (1 mM) damage, FIG. 6
Description: To confirm the effects observed in the cell culture assay in the native organ, i.e., in situ in the complex cellular structure of the organ of Corti, use was made of a form of organ culture where the tissue to be cultivated, in the present case the entire inner ear of the mouse, was located in a rotating cylinder filled with culture medium (Hahn et al., 2008). Before the start of the experiment, the cochlea was opened basally and apically in the region of the scala tympani. In this manner, it was possible to minimize the effect of gravity and at the same time to achieve optimum gas and nutrient exchange between the tissue of the organ of Corti and the culture medium. Under these conditions, the explantate could be kept in culture for longer compared to a stationary culture.
(§1) After administration of the ototoxic aminoglycoside antibiotic neomycin (1 mM), ⅔of all sensory hair cells suffered cell death within 24 hours. Only in the apical regions of the cochlea, some sensory hair cells survived, the number of which declined further during the course of the experiment as a result of the initial damage. After removal of the neomycin from the medium, the remaining supportive cells could be cultivated further.
BrdU was then added to the culture medium simultaneously with the compounds (5 μM), and after 4 days the proliferation was quantified by BrdU incorporation.

[2] = system: differentiated otic epithelium islands from stem cells isolated from the postnatal organ of Corti; assay: In vitro cell culture assay: proportion of Sox2-positive cells (dedifferentiation); format: cell-based, mouse; settings: screening assay, FIG. 3; p<0.05, n=10
Experimental: (§2) First, starting with stem cells with otic development potential isolated from the postnatal organ of Corti of the mouse, typical cellular cluster “spheres” were grown in a suspension culture. Under culture conditions optimized compared to known processes (Oshima et al., 2007; Senn et al., 2007) in a DMEM/F12 medium (Dulbecco's Modified Eagle Medium) supplemented with B27 and N2, about 1600 solid spheres per organ of Corti could be generated from the stem cell culture with added FGF (fibroblast growth factor) and IGF (insulin-like growth factor) (FIG. 1H).
(§3) To this end, the cultivated otospheres were differentiated in a second step under adherent culture conditions on an ornithine/fibronectin surface to give monolayer epithelium islands relatively similar to the original sensory epithelium.
For screening, firstly the proportion of Sox2-positive cells in the in vitro culture was determined. Sox2 is a stem cell marker, which is also expressed during ontogenesis of the organ of Corti. It is thought to have an important role in the pluripotency of embryonal stem cells and during induction of pluripotent stem cells from differentiated cells (Takahashi and Yamanaka, 2006). Accordingly, Sox2 is an important marker, in particular in the context of an induced dedifferentiation/reprogramming of cells.

[3] = system: differentiated otic epithelium islands from stem cells isolated from the postnatal organ of Corti; assay: In vitro cell culture assay: BrdU-positive cells (proliferation), screening and dose/activity analysis; format: cell-based, mouse
Experimental: as §2, §3
If the expression of stem cell markers induced by the compounds is in the end also associated with an increased proliferation of the cells in culture was checked by quantification of the BrdU-positive cells. During substance administration the culture was incubated for 5 h with the thymidine analog BrdU. During the S phase of the cell cycle, cell division results in incorporation of BrdU. If one of the substances stimulates cell division, this can be detected and visualized with an antibody directed against BrdU.
In a dose/activity analysis, the optimum concentration range in which this compound unfolds its maximum regeneration biological effect in the cell culture was determined.
To this end, incorporation of BrdU in the stem cell-based in vitro cell culture assay was determined at 4 concentrations between 0.3 μM and 10 μM in the culture medium. […] From a concentration of 3 μM, the saturation level of about 9% BrdU-positive cells is already reached (FIG. 5).

organ of Corti = assay: In vivo administration after acoustic trauma: regeneration of sensory hair cells (BrdU, myosin VI, DAPI, Sox2 labelling); settings: adult guinea pig, impulse noise damage, 200 μM in Alzet pump intracochlear over 6 weeks, FIG. 7
Description: Acute acoustic damage resulting in a loss of sensory hair cells of the organ of Corti, in particular in the region of the outer sensory hair cells, was caused by impulse noise. The compound N-cyclohexyl-2-[1-amino-2-(1H-indol-3-yl)ethyl]α-azole-4-carboxylic acid amide (3) was then continuously administered locally from a miniosmotic pump (Alzet®), subcutaneously implanted, via choleostomy directly into the scala tympani of the cochlea. The dosage of the substance in the pump was correspondingly higher at 200 μM, taking into account an expected dilution effect in the perilymph.
Administration was over a period of 6 weeks, with a subsequent waiting interval of 2 weeks. In parallel, BrdU was administered via the drinking water or the miniosmotic pump to label proliferating cells in the organ of Corti.
After removal of the organ of Corti, immunohistochemical triple labelling with BrdU (cell division), myosin VI (sensory hair cells) and DAPI (staining of the nuclei) FIGS. 7A to 7E and also with Sox2 (pluripotent supportive cells) was carried out.

sensory hair cells = assay: Ototoxic damage of sensory hair cells in organ culture; format: cell-based, mouse; settings: 1 mM, within 24 hours
Experimental: as §1

Compound | BrdU incorporation into supportive cells (proliferation) [1] | BrdU incorporation into supportive cells (proliferation) ([1]; listed as substance 33) | proportion of Sox2-expressing cells compared with the differentiation control [2] | BrdU incorporation in dose/activity analysis ([3]; 0.3 μM in culture medium, FIG. 5) | BrdU incorporation in dose/activity analysis ([3]; 1 μM in culture medium, FIG. 5) | BrdU incorporation when concentration increased from 0.3 μM to 3 μM ([3]; adhesion culture, p<0.05, n=10, FIG. 5) | BrdU incorporation at concentrations higher than 3 μM ([3]; adhesion culture, up to 10 μM, FIG. 5) | BrdU-positive cells, saturation level in dose/activity analysis ([3]; from 3 μM in culture medium, FIG. 5) | proportion of BrdU-positive cells (induced proliferation) ([3]; screening assay, 5 h incubation with BrdU, FIG. 4) | BrdU incorporation, result in words ([3]; screening assay, 5 h incubation with BrdU, p<0.05, n=10) | regeneration of sensory hair cells based on cell division (BrdU labelling) (organ of Corti) | proportion of all sensory hair cells that suffered cell death (sensory hair cells)
N[C@@H](Cc1c[nH]c2ccccc12)c1nc(C(=O)NC2CCCCC2)co1 [Compound 3, N-cyclohexyl-2-[1-amino-2-(1H-indol-3-yl)ethyl]oxazole-4-carboxylic acid amide] | BrdU incorporation could be demonstrated in the furthest laterally orientated Deiter's cells; also recorded: new cells in the sense of a regeneration by cell division of supportive cells have been formed; also recorded: BrdU was incorporated into laterally orientated Deiter's cells | BrdU was incorporated into individual inner phalangeal cells and inner border cells | more than doubled; also recorded: significant positive results | no significant effect | the mean was already elevated | increased to a significantly higher level | could not be increased any further | about 9% | 4.8% | significant positive results | BrdU-labelled supportive cells and sensory hair cells were preferably demonstrated in the regions of the organ of Corti damaged by acoustic trauma; also recorded: regeneration of sensory hair cells on the basis of cell divisions can be induced | –
neomycin | – | – | – | – | – | – | – | – | – | – | – | ⅔
